Source: patent US9693556B2, “Herbicidal pyridazinone derivatives” (SYNGENTA LIMITED, priority 2011, dated 2017)

How the values were obtained:
Assay type in all cases: in vivo
[1] = system: Ipomoea hederacea (IPOHE); assay: Pre-emergence herbicidal glasshouse test on Ipomoea hederacea; settings: pre-emergence; 1000 g/h; evaluated after 13 days
In short: (§1)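 Herbicidal damage was rated 13 days after treatment on a five-point scale, where 5 denotes 80-100% and 1 denotes 0-19% damage. Spraying at 1000 g/h followed sowing by one day (pre-emergence) or eight days (post-emergence).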

[2] = system: Ipomoea hederacea (IPOHE); assay: Post-emergence herbicidal glasshouse test on Ipomoea hederacea; settings: post-emergence; 1000 g/h; evaluated after 13 days
In short: as §1

[3] = system: Amaranthus retoflexus (AMARE); assay: Post-emergence herbicidal glasshouse test on Amaranthus retoflexus; settings: post-emergence; 1000 g/h; evaluated after 13 days
In short: as §1

Setaria faberi (SETFA) [4] = assay: Pre-emergence herbicidal glasshouse test on Setaria faberi; settings: pre-emergence; 1000 g/h; evaluated after 13 days
In short: as §1

[5] = system: Alopecurus myosuroides (ALOMY); assay: Pre-emergence herbicidal glasshouse test on Alopecurus myosuroides; settings: pre-emergence; 1000 g/h; evaluated after 13 days
In short: as §1

[6] = system: Echinochloa crus-galli (ECHCG); assay: Post-emergence herbicidal glasshouse test on Echinochloa crus-galli; settings: post-emergence; 1000 g/h; evaluated after 13 days
In short: as §1

Setaria faberi (SETFA) [7] = assay: Post-emergence herbicidal glasshouse test on Setaria faberi; settings: post-emergence; 1000 g/h; evaluated after 13 days
In short: as §1

[8] = system: Echinochloa crus-galli (ECHCG); assay: Pre-emergence herbicidal glasshouse test on Echinochloa crus-galli; settings: pre-emergence; 1000 g/h; evaluated after 13 days
In short: as §1

[9] = system: Alopecurus myosuroides (ALOMY); assay: Post-emergence herbicidal glasshouse test on Alopecurus myosuroides; settings: post-emergence; 1000 g/h; evaluated after 13 days
In short: as §1

Solanum nigrum (SOLNI) [10] = assay: Pre-emergence herbicidal glasshouse test on Solanum nigrum; settings: pre-emergence; 1000 g/h; evaluated after 13 days
In short: as §1

[11] = system: Amaranthus retoflexus (AMARE); assay: Pre-emergence herbicidal glasshouse test on Amaranthus retoflexus; settings: pre-emergence; 1000 g/h; evaluated after 13 days
In short: as §1

Solanum nigrum (SOLNI) [12] = assay: Post-emergence herbicidal glasshouse test on Solanum nigrum; settings: post-emergence; 1000 g/h; evaluated after 13 days
In short: as §1

SMILES	PRE Application IPOHE herbicidal damage (five point scale) [1]	POST Application IPOHE herbicidal damage (five point scale) [2]	POST Application AMARE herbicidal damage (five point scale) [3]	PRE Application SETFA herbicidal damage (five point scale) (Setaria faberi (SETFA) [4])	PRE Application ALOMY herbicidal damage (five point scale) [5]	POST Application ECHCG herbicidal damage (five point scale) [6]	POST Application SETFA herbicidal damage (five point scale) (Setaria faberi (SETFA) [7])	PRE Application ECHCG herbicidal damage (five point scale) [8]	POST Application ALOMY herbicidal damage (five point scale) [9]	PRE Application SOLNI herbicidal damage (five point scale) (Solanum nigrum (SOLNI) [10])	PRE Application AMARE herbicidal damage (five point scale) [11]	POST Application SOLNI herbicidal damage (five point scale) (Solanum nigrum (SOLNI) [12])
Cn1ncc(-c2ccc(S(C)(=O)=O)c(Cl)c2Cl)c(O)c1=O [Compound 1.050]	1 (1=0-19% damage)	5 (5=80-100% damage)	5 (5=80-100% damage)	2 (2=20-39% damage)	1 (1=0-19% damage)	5 (5=80-100% damage)	4 (4=60-79% damage)	5 (5=80-100% damage)	2 (2=20-39% damage)	3 (3=40-59% damage)	5 (5=80-100% damage)	5 (5=80-100% damage)
C#Cc1ccc(-c2cnn(C)c(=O)c2O)c(S(C)(=O)=O)c1 [Compound 2.028]	4 (4=60-79% damage)	5 (5=80-100% damage)	5 (5=80-100% damage)	4 (4=60-79% damage)	5 (5=80-100% damage)	5 (5=80-100% damage)	5 (5=80-100% damage)	5 (5=80-100% damage)	5 (5=80-100% damage)	5 (5=80-100% damage)	5 (5=80-100% damage)	5 (5=80-100% damage)
Cn1ncc(-c2ccc(C(F)(F)F)n(C)c2=O)c(O)c1=O [Compound 9.010]	1 (1=0-19% damage)	4 (4=60-79% damage)	5 (5=80-100% damage)	1 (1=0-19% damage)	1 (1=0-19% damage)	4 (4=60-79% damage)	2 (2=20-39% damage)	5 (5=80-100% damage)	2 (2=20-39% damage)	1 (1=0-19% damage)	5 (5=80-100% damage)	5 (5=80-100% damage)
COCn1ncc(-c2ccccc2[S+](C)[O-])c(O)c1=O (stereo not drawn) [Compound 1.145]	1 (1=0-19% damage)	5 (5=80-100% damage)	5 (5=80-100% damage)	2 (2=20-39% damage)	1 (1=0-19% damage)	5 (5=80-100% damage)	5 (5=80-100% damage)	4 (4=60-79% damage)	3 (3=40-59% damage)	2 (2=20-39% damage)	5 (5=80-100% damage)	5 (5=80-100% damage)
C=Cn1ncc(-c2ccccc2S(C)(=O)=O)c(O)c1=O [Compound 2.054]	4 (4=60-79% damage)	5 (5=80-100% damage)	5 (5=80-100% damage)	5 (5=80-100% damage)	5 (5=80-100% damage)	5 (5=80-100% damage)	5 (5=80-100% damage)	5 (5=80-100% damage)	5 (5=80-100% damage)	5 (5=80-100% damage)	5 (5=80-100% damage)	5 (5=80-100% damage)
CCCn1ncc(-c2c(Cl)cccc2Cl)c(O)c1=O [Compound 1.129]	1 (1=0-19% damage)	2 (2=20-39% damage)	3 (3=40-59% damage)	1 (1=0-19% damage)	1 (1=0-19% damage)	2 (2=20-39% damage)	2 (2=20-39% damage)	1 (1=0-19% damage)	1 (1=0-19% damage)	1 (1=0-19% damage)	1 (1=0-19% damage)	3 (3=40-59% damage)
Cn1ncc(-c2cc(C(F)(F)F)ccc2F)c(O)c1=O [Compound 1.096]	1 (1=0-19% damage)	2 (2=20-39% damage)	1 (1=0-19% damage)	1 (1=0-19% damage)	1 (1=0-19% damage)	1 (1=0-19% damage)	1 (1=0-19% damage)	1 (1=0-19% damage)	1 (1=0-19% damage)	1 (1=0-19% damage)	1 (1=0-19% damage)	1 (1=0-19% damage)
CC(C)[S+]([O-])c1ccccc1-c1cnn(C)c(=O)c1O (stereo not drawn) [Compound 1.043]	1 (1=0-19% damage)	4 (4=60-79% damage)	5 (5=80-100% damage)	1 (1=0-19% damage)	1 (1=0-19% damage)	4 (4=60-79% damage)	4 (4=60-79% damage)	1 (1=0-19% damage)	2 (2=20-39% damage)	1 (1=0-19% damage)	1 (1=0-19% damage)	5 (5=80-100% damage)
